Laboratory results taken from patent publication US20150366962A1 (priority 2014, published 2015).

Test system: H5 (VN/04), H11 and H12 subtype HAs
Set-up: species or system mice
Conditions: mouse, in vivo

Row | SMILES | IgG subtype profile (IgG2a/IgG1) to H5 subtype HA | IgG titers reacting to H11 subtype versus unadjuvanted control | IgG titers reacting to H12 subtype versus unadjuvanted control | serum IgG reactivity to the H5 subtype HA (VN/04) versus no adjuvant
1 | CCCCCCCCC=CCCCCCCCC(=O)OCC(COP(=O)(O)OCCNC(=O)c1ccc(Cn2c(=O)[nH]c3c(N)nc(OCCOC)nc32)cc1)OC(=O)CCCCCCCC=CCCCCCCCC (centres unmarked) [Compound 1V270] | inducing IgG2a | significantly better than the unadjuvanted control | significantly better than the unadjuvanted control | significantly higher reactivity
2 | Cn1c2ccccc2c2nc(SCC(=O)NC3CCCCC3)n(-c3ccccc3)c(=O)c21 [Compound 1Z105] | induced primarily IgG1 |  |  | 
